Values joined by “and” are separate entries in the source; they are usually repeats but may differ in a detail not shown here. Equal entries are not always repeated. Toxic doses and inconclusive results are not listed. How the source made its calls: active means survival T/C of 150% or more; inactive means T/C below 125% in these data.
Tested on: P388 leukemia ip, CD2F1 mice, survival T/C
Test: NCI In Vivo Anticancer Drug Screen. Data for tumor model P388 Leukemia (intraperitoneal) in CD2F1 (CDF1) mice
Settings: endpoint: median survival time, higher = longer survival
Procedure, shortened: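 Mice carrying the transplanted tumor received test compound or vehicle. Survival was recorded in each group, and the value is the treated-group measurement divided by that of the vehicle-treated control group.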

[1] = dose: 50.0 mg/kg/injection, schedule: Q01DX009 (ip), vehicle: saline with Tween-80
[2] = dose: 200.0 mg/kg/injection, schedule: Q01DX009 (ip), vehicle: saline with Tween-80
[3] = dose: 400.0 mg/kg/injection, schedule: Q01DX009 (ip), vehicle: saline with Tween-80
[4] = dose: 50.0 mg/kg/injection, schedule: Q01DX005 (ip), vehicle: Klucel (hydroxypropylcellulose) (HPC)
[5] = dose: 100.0 mg/kg/injection, schedule: Q01DX005 (ip), vehicle: Klucel (hydroxypropylcellulose) (HPC)
[6] = dose: 200.0 mg/kg/injection, schedule: Q01DX005 (ip), vehicle: Klucel (hydroxypropylcellulose) (HPC)
[7] = dose: 100.0 mg/kg/injection, schedule: Q01DX009 (ip), vehicle: saline with Tween-80
[8] = dose: 50.0 mg/kg/injection, schedule: Q01DX009 (ip), vehicle: saline
[9] = dose: 100.0 mg/kg/injection, schedule: Q01DX009 (ip), vehicle: saline
[10] = dose: 200.0 mg/kg/injection, schedule: Q01DX009 (ip), vehicle: saline

Measured: T/C

C[N+](C)(Cn1ncc2ccc([N+](=O)[O-])cc21)Cn1ncc2ccc([N+](=O)[O-])cc21
inactive: dose: 12.5 mg/kg/injection, schedule: Q04DX003 (ip), vehicle: saline with Tween-80 100 % of control | dose: 25.0 mg/kg/injection, schedule: Q04DX003 (ip), vehicle: saline with Tween-80 97 % of control | dose: 50.0 mg/kg/injection, schedule: Q04DX003 (ip), vehicle: saline with Tween-80 92 % of control | dose: 100.0 mg/kg/injection, schedule: Q04DX003 (ip), vehicle: saline with Tween-80 96 % of control

Cc1ccc(S(=O)(=O)C(Br)CC(=O)c2ccccc2)cc1 (centres undefined)
inactive: dose: 100.0 mg/kg/injection, schedule: Q04DX002 (ip), vehicle: saline 100 % of control | dose: 200.0 mg/kg/injection, schedule: Q04DX002 (ip), vehicle: saline 101 % of control | dose: 400.0 mg/kg/injection, schedule: Q04DX002 (ip), vehicle: saline 109 % of control

C=CCN(CC=C)C(=O)CCN1CC1
inactive: dose: 2.5 mg/kg/injection, schedule: Q04DX003 (ip), vehicle: saline 108 % of control | dose: 5.0 mg/kg/injection, schedule: Q04DX003 (ip), vehicle: saline 87 % of control | dose: 10.0 mg/kg/injection, schedule: Q04DX003 (ip), vehicle: saline 104 % of control

Oc1ccccc1C=NCCCN=Cc1ccccc1O
inactive: dose: 18.75 mg/kg/injection, schedule: Q01DX009 (ip), vehicle: saline with Tween-80 103 % of control | dose: 37.5 mg/kg/injection, schedule: Q01DX009 (ip), vehicle: saline with Tween-80 110 % of control | [1] 109 % of control | dose: 75.0 mg/kg/injection, schedule: Q01DX009 (ip), vehicle: saline with Tween-80 111 % of control | [2] 121 % of control | [3] 119 % of control

CC(C)[CH2][Ge]([Cl])([Cl])[Cl]
inactive: dose: 0.78 mg/kg/injection, schedule: Q01DX009 (ip), vehicle: saline 103 % of control | dose: 1.56 mg/kg/injection, schedule: Q01DX009 (ip), vehicle: saline 106 % of control | dose: 3.12 mg/kg/injection, schedule: Q01DX009 (ip), vehicle: saline 94 % of control | dose: 6.25 mg/kg/injection, schedule: Q01DX009 (ip), vehicle: saline 119 % of control

CC1=C(c2ccccc2)OS(=O)(=O)CC1N(C)C (centres undefined)
inactive: dose: 50.0 mg/kg/injection, schedule: Q01DX005 (ip), vehicle: saline with Tween-80 99 % of control | dose: 100.0 mg/kg/injection, schedule: Q01DX005 (ip), vehicle: saline with Tween-80 99 % of control | dose: 200.0 mg/kg/injection, schedule: Q01DX005 (ip), vehicle: saline with Tween-80 98 % of control

Cc1cccc[c]1[Sn]([Cl])([O][Sn]([Cl])([c]1ccccc1C)[c]1ccccc1C)[c]1ccccc1C
inactive: dose: 0.19 mg/kg/injection, schedule: Q01DX005 (ip), vehicle: saline 110 % of control | dose: 0.39 mg/kg/injection, schedule: Q01DX005 (ip), vehicle: saline 114 % of control | dose: 1.56 mg/kg/injection, schedule: Q01DX005 (ip), vehicle: saline 124 % of control

COc1c(NC(C)=O)c2ccccc2c2ccccc12
inactive: [4] 106 % of control | [5] 109 % of control | [6] 97 % of control

CCCc1c2cc(OC)c(OC)cc2cc2c3cc(OC)c(OC)cc3cc[n+]12 (tested in a mixture with another compound)
inactive: dose: 25.0 mg/kg/injection, schedule: Q01DX009 (ip), vehicle: saline with Tween-80 102 % of control | [1] 111 % of control | [7] 109 % of control

COc1ccc2ccccc2c1C(=O)CCCc1ccccc1
inactive: dose: 25.0 mg/kg/injection, schedule: Q01DX009 (ip), vehicle: other 98 % of control | dose: 50.0 mg/kg/injection, schedule: Q01DX009 (ip), vehicle: other 98 % of control | dose: 100.0 mg/kg/injection, schedule: Q01DX009 (ip), vehicle: other 98 % of control | dose: 200.0 mg/kg/injection, schedule: Q01DX009 (ip), vehicle: other 92 % of control | dose: 400.0 mg/kg/injection, schedule: Q01DX009 (ip), vehicle: other 105 % of control

C[C@H]1C(=O)OCN1S(=O)(=O)C(C)(C)C
inactive: dose: 60.0 mg/kg/injection, schedule: Q01DX005 (ip), vehicle: saline with Tween-80 101 % of control | dose: 120.0 mg/kg/injection, schedule: Q01DX005 (ip), vehicle: saline with Tween-80 104 % of control | dose: 240.0 mg/kg/injection, schedule: Q01DX005 (ip), vehicle: saline with Tween-80 102 % of control

COCCn1c(=O)[nH]c(=O)c2c(Nc3ccccc3)snc21
inactive: dose: 25.0 mg/kg/injection, schedule: Q01DX009 (ip), vehicle: saline 100 % of control and 93 % of control | [8] 98 % of control and 99 % of control and 89 % of control | [7] 95 % of control | [9] 98 % of control and 112 % of control and 97 % of control | [2] 100 % of control | [10] 99 % of control

O=c1ccn(C2CC(O)C(CO)O2)c(=O)[nH]1 (centres undefined)
inactive: [4] 100 % of control | [5] 101 % of control | [6] 106 % of control

Fc1ccc(C=NC23CC4CC(CC(C4)C2)C3)cc1
inactive: [1] 93 % of control | [7] 91 % of control | [2] 97 % of control

CC(=O)C(N=Nc1cc([N+](=O)[O-])cc(S(=O)(=O)O)c1O)C(=O)Nc1ccccc1.[Cr] (centres undefined)
inactive: [8] 107 % of control | [9] 99 % of control | [10] 97 % of control

O=C(Nc1ccccc1)Nc1nncs1
inactive: dose: 1.56 mg/kg/injection, schedule: Q01DX009 (ip), vehicle: distilled water + Tween-80 104 % of control | dose: 3.13 mg/kg/injection, schedule: Q01DX009 (ip), vehicle: distilled water + Tween-80 109 % of control | dose: 6.25 mg/kg/injection, schedule: Q01DX009 (ip), vehicle: distilled water + Tween-80 103 % of control | dose: 12.5 mg/kg/injection, schedule: Q01DX009 (ip), vehicle: distilled water + Tween-80 104 % of control | dose: 25.0 mg/kg/injection, schedule: Q01DX009 (ip), vehicle: distilled water + Tween-80 104 % of control

CN=C(NCCSCc1ccc2ccccc2n1)NS(=O)(=O)c1ccccc1
inactive: dose: 50.0 mg/kg/injection, schedule: Q01DX005 (ip), vehicle: saline 106 % of control | dose: 100.0 mg/kg/injection, schedule: Q01DX005 (ip), vehicle: saline 106 % of control | dose: 200.0 mg/kg/injection, schedule: Q01DX005 (ip), vehicle: saline 100 % of control

O=c1[nH]c2ccccc2c(=O)n1-c1ccccc1
inactive: [7] 101 % of control and 109 % of control | [2] 96 % of control | [3] 113 % of control and 95 % of control

O=C(OC(C(=O)O)c1ccccc1)c1ccc([N+](=O)[O-])cc1 (centres undefined)
inactive: dose: 75.0 mg/kg/injection, schedule: Q01DX001 (ip), vehicle: Klucel (hydroxypropylcellulose) (HPC) 89 % of control | dose: 150.0 mg/kg/injection, schedule: Q01DX001 (ip), vehicle: Klucel (hydroxypropylcellulose) (HPC) 103 % of control | dose: 300.0 mg/kg/injection, schedule: Q01DX001 (ip), vehicle: Klucel (hydroxypropylcellulose) (HPC) 95 % of control

CCOCCOCCOc1cccc2cccnc12
inactive: [4] 103 % of control | [5] 107 % of control | [6] 107 % of control

Cc1cccc(-c2nc(=S)nc(N)s2)c1
inactive: dose: 100.0 mg/kg/injection, schedule: Q01DX001 (ip), vehicle: saline with Tween-80 95 % of control | dose: 200.0 mg/kg/injection, schedule: Q01DX001 (ip), vehicle: saline with Tween-80 93 % of control

From PubChem BioAssay AID330 (DTP/NCI, 2004)
